{"source": "patent US20150210977A1", "about": "“BACTERIUM WITH INCREASED TOLERANCE TO BUTYRIC ACIDS” (LanzaTech New Zealand Limited, priority 2014, published 2015)", "format_in_all_cases": "cell-based, Clostridium autoethanogenum", "key": {"[1]": {"tested_on": "C. autoethanogenum LZ1561", "test": "Selection of a 2-HIBA tolerant strain in continuous fermentation", "description": "Microorganisms unable to cope with the increasing 2-HIBA concentration were diluted out from the fermentation system, while microorganisms with improved tolerance were retained. Glycerol stocks were collected as the culture resistance improved. CSTRs were inoculated with C. autoethanogenum LZ1561. The reactors were started in batch mode and turned to continuous mode at a dilution rate of 1.5 after approximately 40 hours. Once operationally stable, 2-HIBA (1.1 g/L) was added to the feeding media which was run into the reactor at a dilution rate of 1.5. […] During selection in continuous fermentation, the 2-HIBA concentration tolerated by the C. autoethanogenum LZ1561 culture was reproducibly raised from 1.1 g/L to 6.7 g/L ([…]) by slowly increasing the 2-HIBA concentration over a period of 85 days."}, "[2]": {"tested_on": "C. autoethanogenum LZ1561", "test": "Growth of C. autoethanogenum LZ1561 challenged with 2-HIBA in serum bottles", "design": "growth rate μ, Set 1 / growth rate μ, Set 2: unit not given here", "description": "Clostridium strains were grown at 37° C. in PETC media at pH 5.6 using standard anaerobic techniques (Hungate, Meth Microbiol, 3B: 117-132, 1969; Wolfe, Adv Microb Physiol, 6: 107-146, 1971). Fructose (heterotrophic growth) or 30 psi CO-containing steel mill gas (collected from New Zealand Steel site in Glenbrook, NZ; composition: 44% CO, 32% N2, 22% CO2, 2% H2) in the headspace (autotrophic growth) was used as substrate. For solid media, 1.2% bacto agar (BD, Frankton Lakes, N.J. 07417, USA) was added.\nTwo sets of serum bottle experiments were performed with media containing 0, 0.5, 1, 1.5, 2, 3, or 4 g/L of 2-HIBA. An average of optical density (OD) data from both sets of growth experiments was plotted. Data points outside the visually observed exponential growth phase were removed and the growth rate (g) for each concentration of 2-HIBA was calculated by fitting an exponential trend line (FIG. 1).\nFIGS. 1A-1D show the growth rates of C. autoethanogenum challenged with different concentrations of 2-HIBA. FIG. 1A and FIG. 1B show the respective difference in growth curves for the two sets of growth experiments (n=3). FIG. 1C and FIG. 1D show exponentially fitted lines corresponding to FIG. 1A and FIG. 1B, respectively. […] To extract the growth rate from the trend line equations, the following equation was used OD=OD0Xe^μt, where OD=y, t=x in the trend line equations, providing the calculated growth rates listed below.\nThe growth rates (μ) were plotted in Prism6 (GraphPad, USA) as μ vs log10 [2-HIBA] to determine the concentration of 2-HIBA at which the growth rate of C. autoethanogenum is 50% (FIG. 2)."}, "[3]": {"tested_on": "C. autoethanogenum", "test": "Toxicity of 2-HIBA under continuous fermentation (CSTR), gas uptake and metabolite monitoring", "conditions": "early effect on gas uptake and metabolite production", "from_the_text": "CSTRs were inoculated with C. autoethanogenum and brought to a stable optical density (OD600 nm) and dilution rate (D˜1.5). For all fermentations in CSTRs, chemically defined media was used containing no yeast extract. Parameters were monitored on an hourly basis, including metabolites (measured by HPLC) and gas composition in/out (measured by GC). Early effects of 2-HIBA on culture metabolism included a measurable reduction in CO and/or H2 utilization rates, followed by a decline in metabolite production rate. Two CSTRs were run in parallel and received the same inoculum and media in flow rate and composition. The reactors were turned continuous at day 0.9 with media containing 1.5 g/L 2-HIBA at a dilution rate of 1.5. […] The process was then repeated on the same culture in one reactor while the other served as a control. Following introduction of 2-HIBA, the metabolic profile of C. autoethanogenum shifted to favor 2,3-butanediol production, capping ethanol production. Biomass production was reduced under increasing inflow from 2-HIBA and overall metabolic levels drop caused by reduced CO and H2 uptake. By removing 2-HIBA from the inflow media, gas uptake and metabolic production is stabilized. This indicates a reversible reaction to 2-HIBA. The average effect level of 2-HIBA in a continuous CSTR system was calculated as 1.15 g/L."}}}
{"molecule": "CC(C)(O)C(=O)O", "note": "[2-HIBA, 2-hydroxyisobutyric acid]", "values": [{"measurement": "increase in tolerance", "setting": "[1]; 1.1 g/L to 6.7 g/L during selection in continuous fermentation", "result": 600, "unit": "%"}, {"measurement": "2-HIBA concentration tolerated by the culture", "setting": "[1]; C. autoethanogenum LZ1561 culture at start of selection", "result": 1.1, "unit": "g/L"}, {"measurement": "2-HIBA concentration tolerated by the culture", "setting": "[1]; after slowly increasing the 2-HIBA concentration over a period of 85 days", "result": 6.7, "unit": "g/L"}, {"measurement": "IC50", "setting": "[2]; Clostridium autoethanogenum, LZ1561, μ vs log10 [2-HIBA], read-out: IC50 (concentration of 2-HIBA at which the growth rate is 50%)", "result": 2200, "unit": "µg/mL"}, {"measurement": "growth rate μ, Set 1", "setting": "[2]; [2-HIBA] 0.5 g/L", "result": 0.096}, {"measurement": "growth rate μ, Set 2", "setting": "[2]; [2-HIBA] 0.5 g/L", "result": 0.104}, {"measurement": "growth rate μ, Set 1", "setting": "[2]; [2-HIBA] 1 g/L", "result": 0.092}, {"measurement": "growth rate μ, Set 2", "setting": "[2]; [2-HIBA] 1 g/L", "result": 0.105}, {"measurement": "growth rate μ, Set 1", "setting": "[2]; [2-HIBA] 1.5 g/L", "result": 0.078}, {"measurement": "growth rate μ, Set 2", "setting": "[2]; [2-HIBA] 1.5 g/L", "result": 0.089}, {"measurement": "growth rate μ, Set 1", "setting": "[2]; [2-HIBA] 2 g/L", "result": 0.082}, {"measurement": "growth rate μ, Set 2", "setting": "[2]; [2-HIBA] 2 g/L", "result": 0.090}, {"measurement": "growth rate μ, Set 1", "setting": "[2]; [2-HIBA] 3 g/L", "result": 0.001}, {"measurement": "growth rate μ, Set 2", "setting": "[2]; [2-HIBA] 3 g/L", "result": 0.004}, {"measurement": "growth rate μ, Set 1", "setting": "[2]; [2-HIBA] 4 g/L", "result": 0.004}, {"measurement": "growth rate μ, Set 2", "setting": "[2]; [2-HIBA] 4 g/L", "result": "−0.005"}, {"measurement": "effect on growth", "setting": "[2]; concentration up to 1 g/L of 2-HIBA", "result": "little or no effect"}, {"measurement": "effect on growth", "setting": "[2]; over 2 g/L of 2-HIBA", "result": "acute"}, {"measurement": "effect on growth", "setting": "[2]; up to a concentration of 2 g/L of 2-HIBA", "result": "relatively small effect"}, {"measurement": "average effect level of 2-HIBA in a continuous CSTR system", "setting": "[3]", "result": 1.15, "unit": "g/L"}]}
